Assay results taken from paper PMC10895676, “Antiviral Activity of Lipophilic Nucleoside Tetraphosphate Compounds” (Journal of Medicinal Chemistry, 2024).

Columns and labels:
HIV-2 (ROD) [1] = assay: Anti-HIV replication assay, HIV-2 (ROD) in wild-type CEM/0 cells; assay type: cell-based; conditions: for selectivity index (SI): CC50/EC50, HIV-2 (ROD) in CEM cells; for EC50: Human immunodeficiency virus 2, CCRF-CEM, read-out: HIV-2 (ROD) EC50
In short: (§1)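 Wild-type CEM/0 or thymidine kinase-deficient CEM/TK– T-cells (~3 × 10^5 cells/mL) were infected with 100 CCID50/mL HIV-2(ROD) in the presence of compound dilutions. After 4–5 days at 37 °C, virus-induced cytopathicity and syncytium formation were scored microscopically.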

[2] = Cytotoxicity, inhibition of CEM cell proliferation; assay type: cell-based; conditions: human, CEM cells (CD4+ T-cells), read-out: toxicity CC50
pig liver esterase (PLE) = assay: Enzymatic hydrolysis with pig liver esterase (PLE); assay type: in vitro ADME; conditions: pig liver esterase in phosphate buffer, PLE in phosphate buffer pH 7.3, 37 °C, read-out: PLE t1/2 (converted)
Method: To confirm the enzymatic hydrolysis process, TetraPPPPro-nucleotides 4–9 bearing different kinds of lipophilic groups attached to the δ-phosph(on)ate group were incubated with PLE in phosphate buffer.
Then, 833 μL of 50 mM phosphate buffer (pH 7.3) and 125 μL of DMSO were added to the 6.0 mM hydrolysis solutions. The reaction was started by addition of 62.5 μL of PLE in phosphate buffer (100 units/mL), and the mixture was incubated at 800 rpm at 37 °C in a thermomixer. (1). At different times, aliquots (75 μL) were taken and stopped by the addition of […] of MeOH. The mixture was stored in liquid nitrogen. When testing, samples were warmed up to room temperature, and 60 μL of the liquid was directly injected into HPLC analysis. (2). 40 μL for each extraction was stored in liquid nitrogen. When testing, samples were warmed up to room temperature, and 30 μL of the liquid was taken and injected into the analytical RP-18-HPLC instrument. The calculation of t1/2 was performed analogously to that for the chemical hydrolysis studies.

HIV-2 (ROD) [3] = assay: Anti-HIV replication assay, HIV-2 (ROD) in thymidine kinase-deficient CEM/TK– cells; assay type: cell-based; conditions: for selectivity index (SI): CC50/EC50, HIV-2 (ROD) in CEM/TK– cells; for EC50: read-out: CEM/TK– HIV-2 (ROD) EC50; for improvement of antiviral activity as compared to the parent d4T: HIV-2, CEM/TK– cells
In short: as §1

[4] = Hydrolysis in citrate-stabilized human plasma; assay type: in vitro ADME; conditions: 37 °C, read-out: t1/2 in citrate-stabilized human plasma (converted)
Method: Finally, the supernatant was divided into aliquots and frozen at −80 °C.
Two different samples, including 10 μL of water and 10 μL of 6.0 mM hydrolysis solution, were prepared in 2 mL Eppendorf vials. Next, 50 μL of human CEM cell extracts or 50 μL of human citrate plasma were added to the mixture, the reaction was started, and the mixture was incubated at 37 °C for different time periods. The reactions were stopped by the addition of 150 μL of MeOH. The resulting suspension was kept on ice for 5 min, followed by defrosting and centrifugation at 14,000 rpm (Heraeus, Biofuge Pico) for 22 min. The supernatants (80 or 60 μL) were directly injected into HPLC. The calculation of t1/2 was performed analogously to that for the chemical hydrolysis studies.

[5] = wild-type CEM/0 cells, mean ± SD, n = 2–3
[6] = Human immunodeficiency virus 2, CEM/TK– cells, mean ± SD, n = 2–3

With `CCCCCCCCCCCCCCCCCCOP(=O)(O)OP(=O)(O)OP(=O)(O)OP(=O)(O)OC[C@@H]1C=C[C@H](n2cc(C)c(=O)[nH]c2=O)O1` [compound 20, δ-(Alkyl-C18)-d4T4P] the “selectivity index (SI)” value (HIV-2 (ROD) [1]) was >200, the EC50 (HIV-2 (ROD) [1]; [5]) was 500 ± 160 nM and the CC50 [2] was > 100000 nM. The half-life at 0.45 mM (pig liver esterase (PLE)) was > 50 h, the “selectivity index (SI)” value (HIV-2 (ROD) [3]) was >21 and the EC50 (HIV-2 (ROD) [3]; [6]) was 4600 ± 330 nM.

In the case of `CCCCCCCCCCCCCCCCCCP(=O)(O)OP(=O)(O)OP(=O)(O)OP(=O)(O)OC[C@@H]1C=C[C@H](n2cc(C)c(=O)[nH]c2=O)O1` [compound 24, δ-C-(Alkyl-C18)-d4T4P], the EC50 (HIV-2 (ROD) [1]; [5]) is reported as 240 ± 70 nM, the CC50 [2] is reported as 23200 nM and the half-life at 0.45 mM (pig liver esterase (PLE)) is reported as > 50 h. For the same compound, the half-life at 0.86 mM [4] was > 22 h, the “selectivity index (SI)” value (HIV-2 (ROD) [3]) was 30 and the EC50 (HIV-2 (ROD) [3]; [6]) was 1350 ± 630 nM.

In the case of `CCCCCCCCCCCCCCCCCCP(=O)(OCCCC)OP(=O)(O)OP(=O)(O)OP(=O)(O)OC[C@@H]1C=C[C@H](n2cc(C)c(=O)[nH]c2=O)O1` (some centres unmarked) [5a, δ-(Alkyl-C4)-δ-C-(alkyl-C18)-d4T4P], the EC50 (HIV-2 (ROD) [1]) is reported as 330 ± 120 nM, the CC50 [2] is reported as 44600 nM and the half-life at 0.45 mM (pig liver esterase (PLE)) is reported as > 50 h. For the same compound, the half-life at 0.86 mM [4] was > 22 h, the “improvement of antiviral activity as compared to the parent d4T” value (HIV-2 (ROD) [3]) was > 1100 fold and the EC50 (HIV-2 (ROD) [3]; Human immunodeficiency virus 2, CEM-TK(-)) was 43 ± 26 nM.

For `CCCCCCCCCCCCCCCCCCOP(=O)(OCCCC)OP(=O)(O)OP(=O)(O)OP(=O)(O)OC[C@@H]1C=C[C@H](n2cc(C)c(=O)[nH]c2=O)O1` (some centres unmarked) [4d, δ-(Alkyl-C4; alkyl-C18)-d4T4P], the “selectivity index (SI)” value (HIV-2 (ROD) [1]) was 522, the EC50 (HIV-2 (ROD) [1]; [5]) was 84 ± 18 nM and the CC50 [2] was 43900 nM. The half-life at 0.45 mM (pig liver esterase (PLE)) was > 50 h, the “selectivity index (SI)” value (HIV-2 (ROD) [3]) was 260 and the “improvement of antiviral activity as compared to the parent d4T” value (HIV-2 (ROD) [3]) was > 270 fold. The EC50 (HIV-2 (ROD) [3]; [6]) was 180 ± 150 nM.

In the case of `Cc1cn([C@H]2C=C[C@@H](COP(=O)(O)OP(=O)(O)OP(=O)(O)OP(=O)(O)O)O2)c(=O)[nH]c1=O` [d4T4P, 2′,3′-didehydro-2′,3′-dideoxythymidine-5′-tetraphosphate], the EC50 (HIV-2 (ROD) [1]; [5]) is reported as 220 ± 92 nM, the CC50 [2] is reported as > 100000 nM and the “selectivity index (SI)” value (HIV-2 (ROD) [3]) is reported as >3. The EC50 (HIV-2 (ROD) [3]; [6]) was 33800 ± 21300 nM.
